Measured values reported in US20220184091A1, “Methods of Treating Cancer with Chk1 Inhibitors” (Sierra Oncology, Inc., priority 2019, published 2022).
Where two headings read alike, the source gives them in different places.

Tests used:
[1] = SRA737 plasma and tumor concentrations in HT29 xenograft model; assay type: in vivo; conditions: mouse, oral
Protocol: For each dose, columns from left to right are concentrations in plasma at 6 hours, plasma at 24 hours, tumor at 6 hours, and tumor at 24 hours, respectively.
The effect of SRA737 on Gemcitabine induced Chk1 S296 autophosphorylation was assessed as described in Walton et al. (Oncotarget. 2016 Jan. 19; 7(3): 2329-2342), herein incorporated by reference for all it teaches. Briefly, mice bearing HT29 tumor xenografts were administered (i) vehicle control or (ii) gemcitabine (100 mg/kg in saline, IV) or ([…]) and gemcitabine (100 mg/kg) with SRA737 administered 24 hours following gemcitabine administration (n=3 per time point per treatment). […] Exposure in the tumor was greater than 10-fold higher than in plasma. The circulating plasma concentration at this 24-hour timepoint corresponded to a free drug concentration of approximately 6 nM (2 ng/mL) based on plasma protein binding in mice of 94%.

SNU-C1 = experiment: Cell viability, colon cancer line SNU-C1; assay type: cell-based; conditions: Homo sapiens
PD-L1 = experiment: Flow cytometry of surface PD-L1 in SCLC cell lines; assay type: cell-based; conditions: all SCLC cell lines tested; 1 μM for 72 hours
Protocol: Data presented as mean±SD and p values by t-test ***p<0.001.
Single-cell suspensions were prepared and stained according to standard protocols for flow cytometry with antibodies. For intracellular staining, cells were fixed and permeabilized with BD Cytofix/Cytoperm (BD Biosciences). The data were acquired on a Fortessa or Calibur platform (BD Biosciences) and analyzed with FlowJo software (version 7.6; Tree Star). For analyzing the abundance and the function of CD4+ or CD8+ TILs, single-cell suspensions were prepared from tumors and spleen and stained; the staining of spleen cells was used as the reference of lymphocyte gating, then CD3+ cells were gated, and then CD4+ or CD8+ population was analyzed.

Chk1 = biological target: T1, Chk1 (Homo sapiens, UniProt O14757); conditions: previously found; Walton et al.; cited from earlier work
T1 construct: endogenous in cells
T1 sequence (O14757 whole entry, species assumed): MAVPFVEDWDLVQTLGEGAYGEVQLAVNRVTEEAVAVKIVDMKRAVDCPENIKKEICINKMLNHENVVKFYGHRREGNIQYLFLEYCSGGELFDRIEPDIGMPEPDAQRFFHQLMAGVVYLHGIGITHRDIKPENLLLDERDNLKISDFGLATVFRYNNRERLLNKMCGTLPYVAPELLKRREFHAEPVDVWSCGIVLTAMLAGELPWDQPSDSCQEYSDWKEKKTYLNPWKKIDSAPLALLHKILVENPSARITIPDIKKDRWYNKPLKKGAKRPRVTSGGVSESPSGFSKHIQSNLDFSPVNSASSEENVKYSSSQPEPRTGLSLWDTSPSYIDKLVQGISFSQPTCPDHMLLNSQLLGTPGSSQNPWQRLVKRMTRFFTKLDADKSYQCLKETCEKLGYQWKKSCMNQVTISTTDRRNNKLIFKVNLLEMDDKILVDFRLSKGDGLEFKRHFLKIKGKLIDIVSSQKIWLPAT

concentration at 6 h ([1]; plasma, HT29 xenograft, Dose 12.5 mg/kg, read-out: Plasma (6 h)): 1.01 µM | concentration at 24 h ([1]; plasma, HT29 xenograft, Dose 12.5 mg/kg, read-out: Plasma (24 h)): 0.0777 µM | concentration at 6 h ([1]; plasma, HT29 xenograft, Dose 25 mg/kg, read-out: Plasma (6 h)): 2.52 µM | concentration at 24 h ([1]; plasma, HT29 xenograft, Dose 25 mg/kg, read-out: Plasma (24 h)): 0.893 µM | concentration at 6 h ([1]; plasma, HT29 xenograft, Dose 50 mg/kg, read-out: Plasma (6 h)): 3.96 µM | concentration at 24 h ([1]; plasma, HT29 xenograft, Dose 50 mg/kg, read-out: Plasma (24 h)): 0.512 µM | concentration at 6 h ([1]; plasma, HT29 xenograft, Dose 100 mg/kg, read-out: Plasma (6 h)): 5.84 µM | concentration at 24 h ([1]; plasma, HT29 xenograft, Dose 100 mg/kg, read-out: Plasma (24 h)): 1.67 µM | concentration at 24 h ([1]; plasma, mice, PK/PD benchmark): > 0.1 µM | concentration at 6 h ([1]; tumor, HT29 xenograft, Dose 3.125 mg/kg, read-out: Tumor (6 h)): 3.18 µM | concentration at 24 h ([1]; tumor, HT29 xenograft, Dose 3.125 mg/kg, read-out: Tumor (24 h)): 0.646 µM | concentration at 6 h ([1]; tumor, HT29 xenograft, Dose 6.25 mg/kg, read-out: Tumor (6 h)): 4.01 µM | concentration at 24 h ([1]; tumor, HT29 xenograft, Dose 6.25 mg/kg, read-out: Tumor (24 h)): 0.966 µM | concentration at 6 h ([1]; tumor, HT29 xenograft, Dose 12.5 mg/kg, read-out: Tumor (6 h)): 19 µM | concentration at 24 h ([1]; tumor, HT29 xenograft, Dose 12.5 mg/kg, read-out: Tumor (24 h)): 3.97 µM | concentration at 6 h ([1]; tumor, HT29 xenograft, Dose 25 mg/kg, read-out: Tumor (6 h)): 37.5 µM | concentration at 24 h ([1]; tumor, HT29 xenograft, Dose 25 mg/kg, read-out: Tumor (24 h)): 16.3 µM | concentration at 6 h ([1]; tumor, HT29 xenograft, Dose 50 mg/kg, read-out: Tumor (6 h)): 76.3 µM | concentration at 24 h ([1]; tumor, HT29 xenograft, Dose 50 mg/kg, read-out: Tumor (24 h)): 27.5 µM | concentration at 6 h ([1]; tumor, HT29 xenograft, Dose 100 mg/kg, read-out: Tumor (6 h)): 132 µM | concentration at 24 h ([1]; tumor, HT29 xenograft, Dose 100 mg/kg, read-out: Tumor (24 h)): 102 µM | IC50 (SNU-C1): 1.3 µM
Structure (SMILES): N#Cc1cnc(Nc2cc(NCC3CNCCO3)c(C(F)(F)F)cn2)cn1 (stereo not drawn) [SRA737, 5-[[4-[[morpholin-2-yl]methylamino]-5-(trifluoromethyl)-2-pyridyl]amino]pyrazine-2-carbonitrile]
cell surface PD-L1 expression (PD-L1): significantly increased | off-target activity against other kinases (Chk1): limited off-target activity against other kinases
